Experimental data reported in publication PMC9820444, “Design and Synthesis of Acridine-Triazole and Acridine-Thiadiazole Derivatives and Their Inhibitory Effect against Cancer Cells” (International Journal of Molecular Sciences, 2022).

Experiments:
[1] = test system: large cell lung cancer cells (NCI-H460); assay: MTT antiproliferative assay, NCI-H460; format: cell-based, human; conditions: Homo sapiens, read-out: Effect against cell viability (IC50), NCI-H460
[2] = test system: bladder cancer cells (T24); assay: MTT antiproliferative assay, T24; format: cell-based, human; conditions: Homo sapiens, read-out: Effect against cell viability (IC50), T24
MGC80-3 cells = assay: Apoptosis by Annexin V-FITC/PI flow cytometry, MGC80-3; format: cell-based, human; conditions: control 0.586%
Method: The apoptosis ratios of MGC80-3 or T24 cell lines induced by the selected compounds at the concentration of IC50 and 0.5 IC50 were quantitatively determined by flow cytometry. Four quadrant images (Q1, Q2, Q3 and Q4) were observed by flow cytometric analysis. […] […] After treatment with compound 6h, 5.62% (3.43 μM) and 14.25% (6.85 μM) of the cells were apoptotic. These were higher percentages than the one observed in the control (0.586%). […] The results evidently illustrate that representative compounds 5d and 6h or 4h and 6h could suppress cell proliferation by inducing apoptosis in the early apoptotic period.
(§1) The apoptosis assay and the cell cycle analysis were carried out by cytometry (FACSVerse, BD, Piscataway, NJ, USA) at an excitation wavelength of 488 nm according to the method described in the literature with slight modifications. The cells were seeded at 2 × 10^6/well and washed by cold PBS. The buffer solutions were prepared using 0.1 M pH 7.4 Hepes/NaOH, 1.4 M NaCl, and 25 mM CaCl2.

[3] = test system: human foreskin fibroblasts (HFF); assay: MTT antiproliferative assay, HFF; format: cell-based; conditions: Homo sapiens, Fibroblast, read-out: Effect against cell viability (IC50), HFF
[4] = test system: human normal liver cells (LO2); assay: Cytotoxicity against normal liver cells LO2; format: cell-based; conditions: Homo sapiens, MTT, read-out: Effect against cell viability (IC50), LO2
[5] = target: T1, DNA topoisomerase I (topo I) (Bos taurus, UniProt F1MN93); assay: Topo I inhibitory activity (pBR322); format: biochemical; conditions: at 100 µM
T1 construct: purchased Takara Bio Inc. (Shiga, Japan)
T1 sequence (F1MN93 1-767): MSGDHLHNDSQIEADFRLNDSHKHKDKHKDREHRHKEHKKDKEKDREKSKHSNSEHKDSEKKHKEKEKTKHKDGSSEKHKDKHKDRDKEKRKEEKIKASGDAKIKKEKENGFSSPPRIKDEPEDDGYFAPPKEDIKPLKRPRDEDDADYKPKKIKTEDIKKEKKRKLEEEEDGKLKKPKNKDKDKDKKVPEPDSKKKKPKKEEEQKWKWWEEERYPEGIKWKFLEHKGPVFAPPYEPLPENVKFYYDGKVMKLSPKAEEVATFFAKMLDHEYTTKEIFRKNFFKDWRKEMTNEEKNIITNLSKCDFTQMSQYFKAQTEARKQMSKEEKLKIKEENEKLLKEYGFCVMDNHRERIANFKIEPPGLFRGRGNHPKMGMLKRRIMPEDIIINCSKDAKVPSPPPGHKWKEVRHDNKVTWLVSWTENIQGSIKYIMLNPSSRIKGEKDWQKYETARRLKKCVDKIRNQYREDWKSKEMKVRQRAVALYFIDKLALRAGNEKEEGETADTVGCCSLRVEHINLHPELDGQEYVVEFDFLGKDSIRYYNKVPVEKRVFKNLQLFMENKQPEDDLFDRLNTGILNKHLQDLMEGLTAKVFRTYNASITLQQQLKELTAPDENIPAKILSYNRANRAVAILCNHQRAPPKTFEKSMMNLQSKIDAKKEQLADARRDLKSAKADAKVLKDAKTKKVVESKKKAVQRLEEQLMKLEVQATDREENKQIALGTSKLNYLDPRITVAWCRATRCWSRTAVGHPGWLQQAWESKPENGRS

T24 cells = assay: Apoptosis by Annexin V-FITC/PI flow cytometry, T24; format: cell-based, human; conditions: T24, at IC50 concentration (4h 8.05 μM; 6h 8.93 μM); control 1.18%
Method: The apoptosis ratios of MGC80-3 or T24 cell lines induced by the selected compounds at the concentration of IC50 and 0.5 IC50 were quantitatively determined by flow cytometry. Four quadrant images (Q1, Q2, Q3 and Q4) were observed by flow cytometric analysis. The results of apoptosis ratios (including the early and late apoptosis ratios) after 12 h are presented in Figure 6 (MGC80-3) and Figure 7 (T24). […] After treatment with compound 6h, 5.62% (3.43 μM) and 14.25% (6.85 μM) of the cells were apoptotic. These were higher percentages than the one observed in the control (0.586%). […] The results evidently illustrate that representative compounds 5d and 6h or 4h and 6h could suppress cell proliferation by inducing apoptosis in the early apoptotic period.
as §1

In the case of `COc1ccc(-c2nnc(N=C3c4ccccc4NC4C=CC(C)=CC34)s2)cc1` (centres unmarked) [6h, 7-methyl-N-(5-(4-methoxyphenyl)-1,3,4-thiadiazol-2-yl)-10,10a-dihydroacridin-9(8aH)-imine], the IC50 [1] is reported as 13.3 ± 1.39 µM, the IC50 [2] is reported as 8.93 ± 1.25 µM and the “apoptosis percentage (early and late)” value (MGC80-3 cells; MGC80-3, 0.5 IC50 (5d 2.76 μM; 6h 3.43 μM)) is reported as 5.62%. The “apoptosis percentage (early and late)” value (MGC80-3 cells; MGC80-3, IC50 (5d 5.52 μM; 6h 6.85 μM)) was 14.25%, the IC50 [3] was 33.9 ± 1.28 µM and the IC50 [4] was 43.8 ± 2.63 µM. For the same molecule, the “topo I inhibitory activity” value [5] was “potent” and the apoptosis ratio (T24 cells) was 10.749%.
